The target of assay [1] is T1, humanen Prostaglandin E2 (Subtyp EP2) Rezeptor (Homo sapiens, UniProt P43116).
T1 construct: host or cells: cells in a culture plate
As to the kind of experiment: cAMP antagonism test (HTRF cAMP detection, in presence of PGE2). It counts as cell-based. Particulars: cAMP Antagonismustest, read-out: Antagonismus [IC50. The text has this: Die Bindung von PGE2 an den EP2-Subtyp des humanen PGE2-Rezeptors induziert die Aktivierung membranständiger Adenylatzyklasen und führt zur Bildung von cAMP. In Gegenwart des Phosphodiesteraseinhibitors IBMX wird das durch diese Stimulation akkumulierte und mittels Zell-Lyse freigesetzte cAMP in einem kompetitiven Nachweisverfahren eingesetzt. In diesem Test konkurriert das cAMP im Lysat mit cAMP-XL665 um die Bindung eines Eu-Kryptat markierten Anti-cAMP Antikörpers. Dabei entsteht in Abwesenheit von zellulärem cAMP ein maximales Signal, welches auf der Kopplung dieses Antikörpers an das cAMP-XL665 Molekül beruht. Dadurch entsteht nach Anregung bei 337 nm ein auf FRET (fluorescence resonance energy transfer) basierendes, lang anhaltendes Emissionssignal bei 665 nm (und bei […]). Beide Signale werden in einem geeigneten Messgerät zeitlich versetzt, d.h. nach Abklingen der Hintergrundsfluoreszenz gemessen. Jegliche Erhöhung des durch Prostglandin-E2-Gabe bedingten niedrigen FRET-Signals (gemessen als Well-Ratio-Veränderung = Emission665nm/Emission620nm * 10000) zeigt die Wirkung von Antagonisten.
Die in einer Testplatte und 30 % DMSO vorgelegten Substanzlösungen (0.75 µl) werden in 16 µl einer KRSB+IBMX-Stimulationslösung gelöst (1 X Krebs-Ringer Bicarbonate Buffer; Sigma-Aldrich # K-4002; inklusive 750 µM 3-Isobutyl-1-methylxanthine Sigma-Aldrich # I-7018), anschließend werden 15 µl davon in eine medienfreie Zellkulturplatte überführt, die kurz zuvor mit KRSB gewaschen worden war. Nach einer 30-minütigen Vorinkubation bei Raumtemperatur (RT) werden 5 µl einer 4xPGE2 Lösung (11 nM) zugegeben und in Gegenwart des Agonisten für weitere 60 min bei RT inkubiert (Volumen: - 20 µl), bevor die Reaktion anschließend durch Zugabe von 5 µl Lysispuffer gestoppt und für weitere 20 min bei RT inkubiert wird (Volumen: - 25 µl). Das Zell-Lysat wird anschließend in eine Messplatte überführt und entsprechend den Herstellerangaben (cyclic AMP kit Cisbio International # 62AMPPEC) gemessen.

A further assay relates to Kumulus-Eizell Komplexe. As to the kind of experiment: cumulus expansion test in vitro. The class given is cell-based, Mäusen. Particulars: in competition with PGE2. The text has this:
In immaturen weiblichen Mäusen (Stamm : CD1 (ICR) von Charles River) wird in einem Alter von 14-18 Tagen die Follikulogenese durch eine einmalige Gabe (intraperitoneal) von 10 I.E. PMSG (Pregnant Mare Serum Gonadotropine; Sigma G-4877, Lot 68H0909) induziert. 47 - 50 Stunden nach der Injektion werden die Ovarien entnommen und die Kumulus-Eizell Komplexe entnommen. Der Kumulus Komplex ist in diesem Stadium noch nicht expandiert. Die Kumulus-Eizell Komplexe werden nun für 20 - 24 Stunden mit Prostaglandin E2 (PGE2) (0,3 µM), Vehikel Kontrolle (Ethanol) oder Testsubstanzen inkubiert. Medium: alpha- MEM Medium mit 0,1 mM IBMX, Pyruvate (0,23 mM) Glutamine (2 mM), Pen/Strep 100 IU/ml Pen. und 100 µg/ml Strep.) und HSA (8 mg/ml)). Danach wird die Kumulus Expansion durch die Einteilung in vier Stadien (nach Vanderhyden et al. Dev Biol. 1990 Aug;140(2):307-317) festgestellt. Tabelle 1: Beispiel für die biologische Wirksamkeit der erfindungsgemäßen Verbindungen (gemessen mittels cAMP Antagonismustest): […]

Assay [2] has as its target T1, humanen Prostaglandin E2 (Subtyp EP2) Rezeptor. In words: cellular agonism test (HTRF cAMP detection, without PGE2). The class given is cell-based.

Structures are written as SMILES.

T1 sequence (P43116 whole entry): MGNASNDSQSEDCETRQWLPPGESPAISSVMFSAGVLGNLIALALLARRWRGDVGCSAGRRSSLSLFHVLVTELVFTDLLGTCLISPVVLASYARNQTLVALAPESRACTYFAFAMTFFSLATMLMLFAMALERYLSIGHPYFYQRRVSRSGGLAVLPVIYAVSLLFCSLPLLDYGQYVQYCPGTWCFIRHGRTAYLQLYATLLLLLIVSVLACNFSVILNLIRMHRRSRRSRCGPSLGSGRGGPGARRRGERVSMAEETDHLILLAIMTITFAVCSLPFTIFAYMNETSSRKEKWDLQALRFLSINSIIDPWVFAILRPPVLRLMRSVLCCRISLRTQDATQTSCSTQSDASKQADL

For `Cc1[nH]c2c(F)ccc(C)c2c1CCNC(=O)/C=C/c1cc(F)cc(F)c1` [Beispiel 20, (E)-3-(3,5-Difluorphenyl)-N-[2-(7-fluor-2,4-dimethyl-1 H-indol-3-yl)-ethyl]-acrylamid], the IC50 in assay [1] was 830 nM. In the case of `CC(C)Oc1ccc2c(=O)c3cc(C(=O)O)ccc3oc2c1` [AH 6809, reference compound], the “Unterdrückung der Kumulus Expansion” value with Kumulus-Eizell Komplexe (100 - 200 µM) is on record as “ca. 30%”. For `CCOc1cccc(CCC(=O)NCCc2c(C)[nH]c3c(F)ccc(C)c23)c1` [Beispiel 7, 3-(3-Ethoxyphenyl)-N-[2-(7-fluoro-2,4-dimethyl-1 H-indol-3-yl)-ethyl]-propionamid], the IC50 in assay [1] came to 1200 nM. Regarding `Cc1[nH]c2c(F)ccc(C)c2c1CCNC(=O)CCc1ccc(F)cc1` [Beispiel 9, N-[2-(7-Fluoro-2,4-dimethyl-1 H-indol-3-yl)-ethyl]-3-(4-fluorophenyl)-propionamid], in assay [2], the “Wirkung im zellulären Agonismustest” value is on record as “keine Inhibition”. In the assay on Kumulus-Eizell Komplexe (10 µM), the “Unterdrückung der Kumulus Expansion” value turned out to be 20%. In assay [1], the IC50 stood at 1500 nM.

Values taken from patent publication EP2014287A1, “Use of cinnamic acid derivatives as modulators of an EP2 receptor” (Bayer Schering Pharma Aktiengesellschaft, priority 2007, dated 2009).
